# Measured values as given in publication PMC6199309, “A therapeutic approach to pantothenate kinase associated neurodegeneration” (Nature Communications, 2018).
# What was measured:
# [1] = molecular target: T1, RET(M918T) (Homo sapiens, UniProt P07949, M918T); assay: KINOMEscan; assay type: binding; conditions: read-out: %Ctrl @ 10000nM
# T1 construct: purchased DiscoverX KINOMEscan
# [2] = system: 72 cellular proteins known to cause off-target effects; assay: SAFETYscan off-target panel; conditions: 1 and 10 μM
# [3] = molecular target: T2, TXK (Homo sapiens, UniProt P42681); assay: KINOMEscan; assay type: binding; conditions: read-out: %Ctrl @ 10000nM
# T2 construct: DNA label for qPCR (T7 phage fusion or DNA tag); purchased DiscoverX scanMAX; host or cells: E. coli BL21-derived (T7 phage) or HEK-293
# T2 sequence (P42681 whole entry, the tested form may be a part): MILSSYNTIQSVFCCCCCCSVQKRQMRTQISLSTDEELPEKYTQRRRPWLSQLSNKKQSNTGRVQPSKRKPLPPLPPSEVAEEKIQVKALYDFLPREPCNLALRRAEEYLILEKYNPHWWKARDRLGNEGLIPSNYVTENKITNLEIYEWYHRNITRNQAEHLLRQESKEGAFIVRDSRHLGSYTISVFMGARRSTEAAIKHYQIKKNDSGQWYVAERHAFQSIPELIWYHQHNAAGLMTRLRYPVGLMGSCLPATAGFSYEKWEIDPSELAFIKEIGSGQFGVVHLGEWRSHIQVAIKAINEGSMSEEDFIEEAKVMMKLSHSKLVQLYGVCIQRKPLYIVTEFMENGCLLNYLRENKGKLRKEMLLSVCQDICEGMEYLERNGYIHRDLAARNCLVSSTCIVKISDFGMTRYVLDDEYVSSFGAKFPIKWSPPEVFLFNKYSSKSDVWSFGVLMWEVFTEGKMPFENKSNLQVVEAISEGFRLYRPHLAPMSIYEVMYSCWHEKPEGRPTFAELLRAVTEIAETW
# [4] = molecular target: T3, GAK (Homo sapiens, UniProt O14976); assay: KINOMEscan; assay type: binding; conditions: read-out: %Ctrl @ 10000nM
# T3 construct: purchased DiscoverX KINOMEscan
# [5] = molecular target: T4, PDGFRB (Homo sapiens, UniProt P09619); assay: KINOMEscan; assay type: binding; conditions: read-out: %Ctrl @ 10000nM
# T4 construct: purchased DiscoverX KINOMEscan
# [6] = molecular target: T5, CSNK1G3 (Homo sapiens, UniProt Q9Y6M4); assay: KINOMEscan; assay type: binding; conditions: read-out: %Ctrl @ 10000nM
# T5 construct: purchased DiscoverX KINOMEscan
# T5 sequence (Q9Y6M4 whole entry): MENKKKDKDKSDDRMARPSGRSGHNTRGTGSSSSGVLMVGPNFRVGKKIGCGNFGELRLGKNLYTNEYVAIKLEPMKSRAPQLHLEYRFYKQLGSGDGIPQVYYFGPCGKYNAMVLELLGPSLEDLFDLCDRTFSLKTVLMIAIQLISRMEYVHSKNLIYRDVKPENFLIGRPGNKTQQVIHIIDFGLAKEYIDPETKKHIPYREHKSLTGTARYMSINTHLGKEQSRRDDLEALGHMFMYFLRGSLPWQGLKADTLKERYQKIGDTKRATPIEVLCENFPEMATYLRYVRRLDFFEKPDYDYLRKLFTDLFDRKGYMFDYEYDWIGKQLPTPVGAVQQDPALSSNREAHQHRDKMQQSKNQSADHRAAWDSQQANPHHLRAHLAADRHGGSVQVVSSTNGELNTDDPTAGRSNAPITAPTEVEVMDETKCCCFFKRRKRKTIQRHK
# [7] = molecular target: T6, FGR (Homo sapiens, UniProt P09769); assay: KINOMEscan; assay type: binding; conditions: read-out: %Ctrl @ 10000nM
# T6 construct: purchased DiscoverX KINOMEscan
# [8] = molecular target: T7, p38-gamma (Homo sapiens, UniProt P53778); assay: KINOMEscan; assay type: binding; conditions: read-out: %Ctrl @ 10000nM
# T7 construct: purchased DiscoverX KINOMEscan
# [9] = molecular target: T8, TNNI3K (Homo sapiens, UniProt Q59H18); assay: KINOMEscan; assay type: binding; conditions: read-out: %Ctrl @ 10000nM
# T8 construct: purchased DiscoverX KINOMEscan
# [10] = system: FLT3(ITD); assay type: binding, human
# [11] = molecular target: T9, PAK7 (Homo sapiens, UniProt Q9P286); assay: KINOMEscan; assay type: binding; conditions: read-out: %Ctrl @ 10000nM
# T9 construct: purchased DiscoverX KINOMEscan
# [12] = PAMPA; conditions: PAMPA
# [13] = molecular target: T10, EGFR(L747-S752del, P753S) (Homo sapiens, UniProt P00533, DEL747-752/P753S); assay: KINOMEscan; assay type: binding; conditions: read-out: %Ctrl @ 10000nM
# T10 construct: purchased DiscoverX KINOMEscan
# T10 sequence (P00533 with tags, fused parts or gaps DEL747-752/P753S limits assumed): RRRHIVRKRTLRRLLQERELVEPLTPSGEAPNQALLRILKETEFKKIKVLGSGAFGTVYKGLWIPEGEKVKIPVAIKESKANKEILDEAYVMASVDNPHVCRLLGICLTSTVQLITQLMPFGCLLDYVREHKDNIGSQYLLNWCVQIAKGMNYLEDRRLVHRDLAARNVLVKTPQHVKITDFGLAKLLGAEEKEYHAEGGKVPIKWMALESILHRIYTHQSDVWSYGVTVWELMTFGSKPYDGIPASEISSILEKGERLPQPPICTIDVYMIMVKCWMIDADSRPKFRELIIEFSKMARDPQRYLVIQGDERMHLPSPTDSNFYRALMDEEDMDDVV
# [14] = molecular target: T11, HPK1 (Homo sapiens, UniProt Q92918); assay: KINOMEscan; assay type: binding; conditions: read-out: %Ctrl @ 10000nM
# T11 construct: purchased DiscoverX KINOMEscan
# [15] = molecular target: T12, NDR2 (Homo sapiens, UniProt Q9Y2H1); assay: KINOMEscan; assay type: binding; conditions: read-out: %Ctrl @ 10000nM
# T12 construct: purchased DiscoverX KINOMEscan
# [16] = molecular target: T13, PYK2 (Homo sapiens, UniProt Q14289); assay: KINOMEscan; assay type: binding; conditions: read-out: %Ctrl @ 10000nM
# T13 construct: purchased DiscoverX KINOMEscan
# [17] = molecular target: T14, LYN (Homo sapiens, UniProt P07948); assay: KINOMEscan; assay type: binding; conditions: read-out: %Ctrl @ 10000nM
# T14 construct: purchased DiscoverX KINOMEscan
# T14 sequence (P07948 whole entry): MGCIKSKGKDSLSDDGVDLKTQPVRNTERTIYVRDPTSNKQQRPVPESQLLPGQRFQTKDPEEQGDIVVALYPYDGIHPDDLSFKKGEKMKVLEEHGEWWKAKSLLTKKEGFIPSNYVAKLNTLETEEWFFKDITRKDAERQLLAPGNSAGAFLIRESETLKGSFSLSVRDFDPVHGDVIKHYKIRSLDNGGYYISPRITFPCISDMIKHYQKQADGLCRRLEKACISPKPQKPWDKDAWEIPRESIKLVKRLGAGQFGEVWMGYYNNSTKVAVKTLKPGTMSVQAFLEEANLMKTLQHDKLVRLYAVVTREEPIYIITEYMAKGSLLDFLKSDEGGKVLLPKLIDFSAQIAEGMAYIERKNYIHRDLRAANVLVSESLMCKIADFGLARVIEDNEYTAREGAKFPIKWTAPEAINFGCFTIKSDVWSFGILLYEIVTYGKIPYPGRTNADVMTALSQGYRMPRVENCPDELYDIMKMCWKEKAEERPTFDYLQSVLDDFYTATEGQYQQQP
# [18] = molecular target: T15, PIK3CA(E542K) (Homo sapiens, UniProt P42336, E542K); assay: KINOMEscan; assay type: binding; conditions: read-out: %Ctrl @ 10000nM
# T15 construct: purchased DiscoverX KINOMEscan
# [19] = molecular target: T16, BMPR1A (Homo sapiens, UniProt P36894); assay: KINOMEscan; assay type: binding; conditions: read-out: %Ctrl @ 10000nM
# T16 construct: purchased DiscoverX KINOMEscan
# [20] = molecular target: T17, PRKCI (Homo sapiens, UniProt P41743); assay: KINOMEscan; assay type: binding; conditions: read-out: %Ctrl @ 10000nM
# T17 construct: purchased DiscoverX KINOMEscan
# [21] = molecular target: T18, DAPK3 (Homo sapiens, UniProt O43293); assay: KINOMEscan; assay type: binding; conditions: read-out: %Ctrl @ 10000nM
# T18 construct: purchased DiscoverX KINOMEscan
# [22] = molecular target: T19, RIPK1 (Homo sapiens, UniProt Q13546); assay: KINOMEscan; assay type: binding; conditions: read-out: %Ctrl @ 10000nM
# T19 construct: purchased DiscoverX KINOMEscan
# [23] = molecular target: T20, DYRK2 (Homo sapiens, UniProt Q92630); assay: KINOMEscan; assay type: binding; conditions: read-out: %Ctrl @ 10000nM
# T20 construct: purchased DiscoverX KINOMEscan
# [24] = molecular target: T21, LRRK2 (Homo sapiens, UniProt Q5S007); assay: KINOMEscan; assay type: binding; conditions: read-out: %Ctrl @ 10000nM
# T21 construct: purchased DiscoverX KINOMEscan
# [25] = molecular target: T22, CSNK2A1 (Homo sapiens, UniProt P68400); assay: KINOMEscan; assay type: binding; conditions: read-out: %Ctrl @ 10000nM
# T22 construct: purchased DiscoverX KINOMEscan
# [26] = molecular target: T23, KIT(L576P) (Homo sapiens, UniProt P10721, L576P); assay: KINOMEscan; assay type: binding; conditions: read-out: %Ctrl @ 10000nM
# T23 construct: purchased DiscoverX KINOMEscan
# T23 sequence (P10721 26-976 L576P): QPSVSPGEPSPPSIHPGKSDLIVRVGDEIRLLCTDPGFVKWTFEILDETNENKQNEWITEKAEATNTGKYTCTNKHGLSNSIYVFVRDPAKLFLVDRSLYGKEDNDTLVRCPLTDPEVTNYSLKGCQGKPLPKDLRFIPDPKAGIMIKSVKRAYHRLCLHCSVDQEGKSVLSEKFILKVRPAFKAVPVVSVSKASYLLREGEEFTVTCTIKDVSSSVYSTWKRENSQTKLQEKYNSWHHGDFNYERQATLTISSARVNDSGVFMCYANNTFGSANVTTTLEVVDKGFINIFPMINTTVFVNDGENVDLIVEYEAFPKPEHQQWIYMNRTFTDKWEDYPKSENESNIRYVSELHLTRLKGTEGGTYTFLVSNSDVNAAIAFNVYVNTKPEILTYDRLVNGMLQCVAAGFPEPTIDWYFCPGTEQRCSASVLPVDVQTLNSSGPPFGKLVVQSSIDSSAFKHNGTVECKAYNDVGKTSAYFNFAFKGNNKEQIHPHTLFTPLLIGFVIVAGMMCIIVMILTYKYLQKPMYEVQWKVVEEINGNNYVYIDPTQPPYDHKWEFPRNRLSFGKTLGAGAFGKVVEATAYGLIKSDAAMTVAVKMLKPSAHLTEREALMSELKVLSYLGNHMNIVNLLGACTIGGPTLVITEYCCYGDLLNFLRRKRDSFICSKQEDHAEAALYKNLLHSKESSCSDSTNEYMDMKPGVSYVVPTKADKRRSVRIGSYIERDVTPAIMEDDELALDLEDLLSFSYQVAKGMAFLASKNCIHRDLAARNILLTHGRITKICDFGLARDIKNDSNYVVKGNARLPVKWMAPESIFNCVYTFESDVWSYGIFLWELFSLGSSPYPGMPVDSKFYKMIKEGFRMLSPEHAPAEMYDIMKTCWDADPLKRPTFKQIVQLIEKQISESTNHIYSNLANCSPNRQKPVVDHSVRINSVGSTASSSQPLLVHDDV
# [27] = molecular target: T24, CAMK1D (Homo sapiens, UniProt Q8IU85); assay: KINOMEscan; assay type: binding; conditions: read-out: %Ctrl @ 10000nM
# T24 construct: purchased DiscoverX KINOMEscan
# [28] = molecular target: T25, ADCK4 (Homo sapiens, UniProt Q96D53); assay: KINOMEscan; assay type: binding; conditions: read-out: %Ctrl @ 10000nM
# T25 construct: purchased DiscoverX KINOMEscan
# T25 sequence (Q96D53 whole entry): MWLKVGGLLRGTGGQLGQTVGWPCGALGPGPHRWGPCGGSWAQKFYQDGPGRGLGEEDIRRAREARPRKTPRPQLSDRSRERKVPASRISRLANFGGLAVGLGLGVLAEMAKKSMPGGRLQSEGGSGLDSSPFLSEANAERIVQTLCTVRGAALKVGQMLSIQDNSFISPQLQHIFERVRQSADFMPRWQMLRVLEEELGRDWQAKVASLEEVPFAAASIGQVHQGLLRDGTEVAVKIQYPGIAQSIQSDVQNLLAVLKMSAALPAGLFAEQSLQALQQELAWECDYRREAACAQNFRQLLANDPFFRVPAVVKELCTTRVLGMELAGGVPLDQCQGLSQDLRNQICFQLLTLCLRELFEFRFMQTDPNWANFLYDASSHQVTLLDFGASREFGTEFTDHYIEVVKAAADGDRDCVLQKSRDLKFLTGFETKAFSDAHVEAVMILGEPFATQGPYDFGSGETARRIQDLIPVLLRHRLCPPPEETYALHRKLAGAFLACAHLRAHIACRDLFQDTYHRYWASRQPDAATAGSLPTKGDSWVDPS
# [29] = molecular target: T26, MRCKA (Homo sapiens, UniProt Q5VT25); assay: KINOMEscan; assay type: binding; conditions: read-out: %Ctrl @ 10000nM
# T26 construct: purchased DiscoverX KINOMEscan
# [30] = molecular target: T27, ERK2 (Homo sapiens, UniProt P28482); assay: KINOMEscan; assay type: binding; conditions: read-out: %Ctrl @ 10000nM
# T27 construct: purchased DiscoverX KINOMEscan
# [31] = molecular target: T28, NEK10 (Homo sapiens, UniProt Q6ZWH5); assay: KINOMEscan; assay type: binding; conditions: read-out: %Ctrl @ 10000nM
# T28 construct: purchased DiscoverX KINOMEscan
# [32] = molecular target: T29, BRK (Homo sapiens, UniProt Q13882); assay: KINOMEscan; assay type: binding; conditions: read-out: %Ctrl @ 10000nM
# T29 construct: purchased DiscoverX KINOMEscan
# [33] = molecular target: T30, TLK2 (Homo sapiens, UniProt Q86UE8); assay: KINOMEscan; assay type: binding; conditions: read-out: %Ctrl @ 10000nM
# T30 construct: purchased DiscoverX KINOMEscan
# T30 sequence (Q86UE8 whole entry): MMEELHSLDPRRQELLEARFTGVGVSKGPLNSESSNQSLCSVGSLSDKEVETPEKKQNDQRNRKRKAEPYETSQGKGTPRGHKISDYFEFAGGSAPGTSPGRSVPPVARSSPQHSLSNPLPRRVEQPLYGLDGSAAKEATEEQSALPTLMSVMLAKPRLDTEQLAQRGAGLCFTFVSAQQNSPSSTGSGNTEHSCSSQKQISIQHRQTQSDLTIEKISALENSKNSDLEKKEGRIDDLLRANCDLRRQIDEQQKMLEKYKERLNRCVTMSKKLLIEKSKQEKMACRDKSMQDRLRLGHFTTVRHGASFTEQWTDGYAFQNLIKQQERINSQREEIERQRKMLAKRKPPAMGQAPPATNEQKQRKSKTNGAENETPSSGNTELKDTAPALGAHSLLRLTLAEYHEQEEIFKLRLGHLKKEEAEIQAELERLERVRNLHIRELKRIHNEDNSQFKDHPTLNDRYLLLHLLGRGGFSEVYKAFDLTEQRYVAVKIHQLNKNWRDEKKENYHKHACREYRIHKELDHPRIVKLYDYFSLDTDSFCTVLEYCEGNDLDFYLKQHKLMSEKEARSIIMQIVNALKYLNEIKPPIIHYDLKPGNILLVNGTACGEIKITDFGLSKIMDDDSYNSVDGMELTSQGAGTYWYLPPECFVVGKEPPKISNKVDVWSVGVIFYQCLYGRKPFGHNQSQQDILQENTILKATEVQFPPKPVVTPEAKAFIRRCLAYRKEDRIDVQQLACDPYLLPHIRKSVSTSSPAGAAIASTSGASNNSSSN
# [34] = molecular target: T31, SRPK3 (Homo sapiens, UniProt Q9UPE1); assay: KINOMEscan; assay type: binding; conditions: read-out: %Ctrl @ 10000nM
# T31 construct: purchased DiscoverX KINOMEscan
# [35] = molecular target: T32, RAF1 (Homo sapiens, UniProt P04049); assay: KINOMEscan; assay type: binding; conditions: read-out: %Ctrl @ 10000nM
# T32 construct: purchased DiscoverX KINOMEscan
# [36] = molecular target: T33, MET (Homo sapiens, UniProt P08581); assay: KINOMEscan; assay type: binding; conditions: read-out: %Ctrl @ 10000nM
# T33 construct: purchased DiscoverX KINOMEscan
# [37] = molecular target: T34, CAMK1G (Homo sapiens, UniProt Q96NX5); assay: KINOMEscan; assay type: binding; conditions: read-out: %Ctrl @ 10000nM
# T34 construct: purchased DiscoverX KINOMEscan
# [38] = molecular target: T35, SRPK1 (Homo sapiens, UniProt Q96SB4); assay: KINOMEscan; assay type: binding; conditions: read-out: %Ctrl @ 10000nM
# T35 construct: purchased DiscoverX KINOMEscan
# T35 sequence (Q96SB4 whole entry): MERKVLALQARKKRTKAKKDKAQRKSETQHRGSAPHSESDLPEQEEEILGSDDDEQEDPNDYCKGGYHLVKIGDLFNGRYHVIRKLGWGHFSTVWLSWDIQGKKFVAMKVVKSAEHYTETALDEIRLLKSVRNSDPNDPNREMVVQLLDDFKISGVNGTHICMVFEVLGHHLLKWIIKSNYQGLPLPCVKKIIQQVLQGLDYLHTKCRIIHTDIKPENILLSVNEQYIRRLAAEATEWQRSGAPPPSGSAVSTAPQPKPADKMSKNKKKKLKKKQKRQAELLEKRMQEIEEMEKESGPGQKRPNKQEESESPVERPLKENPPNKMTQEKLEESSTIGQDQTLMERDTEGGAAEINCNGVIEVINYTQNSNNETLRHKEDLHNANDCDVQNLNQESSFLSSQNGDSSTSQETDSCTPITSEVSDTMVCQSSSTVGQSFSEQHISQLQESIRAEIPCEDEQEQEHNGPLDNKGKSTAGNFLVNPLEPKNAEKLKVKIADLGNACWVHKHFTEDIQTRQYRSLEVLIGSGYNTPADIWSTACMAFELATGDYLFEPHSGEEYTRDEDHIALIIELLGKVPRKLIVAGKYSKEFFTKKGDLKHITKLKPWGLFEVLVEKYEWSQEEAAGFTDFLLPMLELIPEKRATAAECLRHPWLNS
# [39] = molecular target: T36, PCTK1 (Homo sapiens, UniProt Q00536); assay: KINOMEscan; assay type: binding; conditions: read-out: %Ctrl @ 10000nM
# T36 construct: purchased DiscoverX KINOMEscan
# [40] = molecular target: T37, FGFR1 (Homo sapiens, UniProt P11362); assay: KINOMEscan; assay type: binding; conditions: read-out: %Ctrl @ 10000nM
# T37 construct: purchased DiscoverX KINOMEscan
# [41] = molecular target: T38, BMX (Homo sapiens, UniProt P51813); assay: KINOMEscan; assay type: binding; conditions: read-out: %Ctrl @ 10000nM
# T38 construct: purchased DiscoverX KINOMEscan
# [42] = molecular target: T39, YSK4 (Homo sapiens, UniProt Q56UN5); assay: KINOMEscan; assay type: binding; conditions: read-out: %Ctrl @ 10000nM
# T39 construct: purchased DiscoverX scanMAX; host or cells: E. coli BL21-derived host (T7 phage) or HEK-293
# [43] = molecular target: T40, MST2 (Homo sapiens, UniProt Q13188); assay: KINOMEscan; assay type: binding; conditions: read-out: %Ctrl @ 10000nM
# T40 construct: purchased DiscoverX KINOMEscan
smiles,measurement,setting,value
"CC(C)c1ccc(CC(=O)N2CCN(c3ccc(C#N)nn3)CC2)cc1 [PZ-2891, 6-(4-(2-(4-isopropylphenyl)acetyl)piperazin-1-yl)pyridazine-3-carbonitrile]",remaining binding at 10 µM,[1],95%
same,off-target pharmacological interactions,[2],absence of off-target pharmacological interactions
same,remaining binding at 10 µM,[3],92%
same,remaining binding at 10 µM,[4],93%
same,remaining binding at 10 µM,[5],75%
same,remaining binding at 10 µM,[6],80%
same,remaining binding at 10 µM,[7],96%
same,remaining binding at 10 µM,[8],58%
same,remaining binding at 10 µM,[9],76%
same,%Ctrl @ 10000nM,[10],99%
same,remaining binding at 10 µM,[11],73%
same,PAMPA; Avg Pe,[12],413 10-6 cm/s
same,remaining binding at 10 µM,[13],100%
same,remaining binding at 10 µM,[14],100%
same,remaining binding at 10 µM,[15],94%
same,remaining binding at 10 µM,[16],90%
same,remaining binding at 10 µM,[17],79%
same,remaining binding at 10 µM,[18],64%
same,remaining binding at 10 µM,[19],100%
same,remaining binding at 10 µM,[20],83%
same,remaining binding at 10 µM,[21],100%
same,remaining binding at 10 µM,[22],98%
same,remaining binding at 10 µM,[23],97%
same,remaining binding at 10 µM,[24],100%
same,remaining binding at 10 µM,[25],82%
same,remaining binding at 10 µM,[26],88%
same,remaining binding at 10 µM,[27],95%
same,remaining binding at 10 µM,[28],92%
same,remaining binding at 10 µM,[29],92%
same,remaining binding at 10 µM,[30],86%
same,remaining binding at 10 µM,[31],89%
same,remaining binding at 10 µM,[32],80%
same,remaining binding at 10 µM,[33],98%
same,remaining binding at 10 µM,[34],67%
same,remaining binding at 10 µM,[35],85%
same,remaining binding at 10 µM,[36],80%
same,remaining binding at 10 µM,[37],83%
same,remaining binding at 10 µM,[38],100%
same,remaining binding at 10 µM,[39],76%
same,remaining binding at 10 µM,[40],87%
same,remaining binding at 10 µM,[41],100%
same,remaining binding at 10 µM,[42],89%
same,remaining binding at 10 µM,[43],92%
